Earlier results, collected in patent US20150182535A1, “Antimicrobial Composition for the Treatment of Methicillin-resistant Staphylococcus aureus” (priority 2014, published 2015).

Test system: humans

SMILES: C[C@H]1[C@H](N2CCS(=O)(=O)CC2)O[C@@H]2O[C@@]3(C)CC[C@H]4[C@H](C)CC[C@@H]1[C@@]24OO3 [Artemisone]
- toxicity (general statement in words): very low toxicity

SMILES: C[C@H]1[C@H](OC(=O)CCC(=O)O)O[C@@H]2O[C@@]3(C)CC[C@H]4[C@H](C)CC[C@@H]1[C@@]24OO3 [artesunate]
- safety relative to artemether: twice as safe
- toxicity relative to chloroquinine: one-fiftieth
